In patent publication US20090298824A1, “Organic compounds” (priority 2004, published 2009):

Tested on: neutrophils
Experiment: Neutrophil chemotaxis assay
Type: cell-based
Details: 1.5 h; inhibition of neutrophil chemotaxis; chemoattractants 0.1-5 nM; 90 minutes migration at 37° C.; read-out: IC50 values in the above assay
Protocol: The in vitro inhibitory properties of these compounds are determined in the neutrophil chemotaxis assay. Assays were performed in a 96-well plate format according to previously published method (Frevert C W, et al., J Immunolog. Methods, 1998, 213, 41). 96-well chemotaxis chambers 5 μm were obtained from Neuro Probe, all cell buffers were obtained from Invitrogen Paisley, UK, dextran-T500 and Ficoll-Paque Plus™ density gradient centrifugation media were purchased from Pharmacia Biotech Buckinghamshire, UK. Calcein-AM dye was obtained from Molecular Probes. Neutrophils were isolated as previously described (Haslett, C., et al. Am J Path., 1985, 119:101). Citrated whole blood was mixed with 4% (w/v) dextran-T500 and allowed to stand on ice for 30 minutes to remove erythrocytes. Granulocytes (PMN) were separated from peripheral blood mononuclear cells by layering 15 ml of cell suspension onto 15 ml Ficoll-Paque PLUS density gradient and centrifuged at 250×g for 25 minutes. […] The labelled cells were washed with RPMI without phenol red+0.1% bovine serum albumin, prior to use the cells were counted and adjusted to a final concentration of 5×10^6 cells/ml. […] At the end of the incubation period, migrated cells were quantified using a multi-well fluorescent plate reader (Fluoroskan II™, Labsystems) at 485 nm excitation and 538 nm emission. […]

IC50: 322 nM
Structure (SMILES): N#Cc1cc(O)c2[nH]c(Nc3cccc(Cl)c3Cl)nc2c1 [Example 2, 2-(2,3-Dichloro-phenylamino)-7-hydroxy-1H-benzoimidazole-5-carbonitrile]
